Bridge positions count the residues as written; N and C are the ends. Peptide text beside a SMILES is read from it.

Test [1] relates to Listeria monocytogenes ATCC 19115. In words: Killing kinetics (colony counting). Format: cell-based. The conditions noted are these: 200 μg/mL peptide, 37°C, PBS pH 7.4; sampled at 0, 30, 60, 90, 180 min. The procedure: (§1) Bacteria were cultured overnight at 37°C in LB broth for E. coli, and in tryptic soy broth for the other bacteria, and suspended to 5.0×10^5 colony-forming units (CFU)/mL in PBS (pH 7.4). To measure antimicrobial activity, 25 μL of bacteria were added into 96-well microtiter plates and diluted duck LEAP-2 peptides were dispensed to final concentrations of 50, 100, 150, and 200 μg/mL. After 3 h of incubation at 37°C, surviving bacteria were counted using a standard colony counting assay according to the following formula: cell survival % = (treatment CFU/negative control CFU)×100. To determine the killing kinetics, L. monocytogenes and S. aureus were cultured overnight in tryptic soy broth and suspended to 5.0×10^5 CFU/mL in PBS (pH 7.4). Bacteria were added into 96-well microtiter plates with a final peptide concentration of 200 μg/mL. The bacteria and peptide mixture was incubated for 0, 30, 60, 90, and 180 min at 37°C. Surviving bacteria were counted using a standard colony counting assay.

The subject of test [2] is Staphylococcus aureus. In words: Killing kinetics (colony counting). Format: cell-based. The conditions noted are these: 200 μg/mL peptide, 37°C, PBS pH 7.4; sampled at 0, 30, 60, 90, 180 min. The method, then: as §1
For test [3], the system named is L. monocytogenes. In words: Fluorescence microscopic analysis, LIVE/DEAD BacLight staining. In kind it is cell-based, Listeria monocytogenes. Particulars: 200 μg/mL peptide, 3 h at 37°C, SYTO9 / propidium iodide. The procedure: (§2) E. coli, S. aureus, and L. monocytogenes (5.0×10^5 CFU/mL) in PBS were incubated with a 200 μg/mL (final concentration) of the disulfide-LEAP-2 peptide for 3 h at 37°C. After incubation, the cells were washed with PBS and stained with LIVE/DEAD BacLight Bacterial Viability Kits (Invitrogen, USA) according to the manufacturer’s instructions. In brief, the bacteria were incubated for 15 min with SYTO9 green fluorescent […] and with propidium iodide in a dark room. The cells were then mounted onto glass slides and examined using EVOS FLoid Cell Imaging Station (Invitrogen, USA).

Test [4] has as its system E. coli ATCC 43888. In words: Antimicrobial activity assay (colony counting). Format: cell-based, Escherichia coli. Particulars: 50 μg/mL peptide, 3 h at 37°C, PBS pH 7.4, colony counting. The method, then: (§3) The bacterial species used in this experiment included two gram-positive bacteria strains, Listeria monocytogenes (L. monocytogenes) ATCC 19115 and Staphylococcus aureus (S. aureus) ATCC 27664, and four gram-negative bacteria strains, E. coli ATCC 43888, Salmonella enterica serovar Enteritidis YHS 383, Salmonella enterica serovar Choleraesuis YHS 386, and Salmonella enterica serovar Typhimurium ATCC 43174.
as §1, with “The bacteria and peptide mixture was incubated for 0, 30, 60, 90, and 180 min at 37°C.” left out

Test [5] deals with Listeria monocytogenes (L. monocytogenes) ATCC 19115. As to the kind of experiment: Antimicrobial activity assay (colony counting). Format: cell-based. Particulars: 50 μg/mL peptide, 3 h at 37°C, 5.0×10^5 CFU/mL in PBS pH 7.4, colony counting. The method, then:
as §3, §1

In test [6] the test system is Salmonella enterica serovar Typhimurium ATCC 43174. In words: Antimicrobial activity assay (colony counting). Particulars: 200 μg/mL peptide, 3 h at 37°C, PBS pH 7.4, colony counting. In kind it is cell-based. The procedure: as §3, §1
Test [7] deals with Staphylococcus aureus (S. aureus) ATCC 27664. As to the kind of experiment: Antimicrobial activity assay (colony counting). The conditions noted are these: 50 μg/mL peptide, 3 h at 37°C, 5.0×10^5 CFU/mL in PBS pH 7.4, colony counting. In kind it is cell-based. The method, then:
as §3, §1

In test [8] the test system is E. coli. In words: Fluorescence microscopic analysis, LIVE/DEAD BacLight staining. In kind it is cell-based, Escherichia coli. The conditions noted are these: 200 μg/mL peptide, 3 h at 37°C, SYTO9 / propidium iodide. The procedure: as §2
Test [9] deals with S. aureus. The test is described as above. In kind it is cell-based, Staphylococcus aureus. The conditions noted are these: 200 μg/mL peptide, 3 h at 37°C, SYTO9 / propidium iodide. The method, then: as §2
The subject of test [10] is Salmonella enterica serovar Enteritidis YHS 383. In words: Antimicrobial activity assay (colony counting). Particulars: 3 h at 37°C, PBS pH 7.4, colony counting; concentration not given. Format: cell-based. The procedure:
as §3, §1

With `CC[C@H](C)[C@@H]1NC(=O)[C@@H]2CSSC[C@@H](C(=O)N[C@@H](Cc3ccccc3)C(=O)N[C@@H](CC(C)C)C(=O)N[C@@H](CCCNC(=N)N)C(=O)N[C@@H](CO)C(=O)N[C@@H](C)C(=O)N[C@@H](CO)C(=O)N[C@@H](CCC(=O)O)C(=O)O)NC(=O)[C@H](CCCNC(=N)N)NC(=O)[C@H](CC(N)=O)NC(=O)[C@H](CCCCN)NC(=O)[C@H](CCCNC(=N)N)NC(=O)[C@H](CSSC[C@H](NC(=O)[C@H](CO)NC(=O)[C@H](C)NC(=O)CNC(=O)[C@@H](NC(=O)[C@@H]3CCCN3C(=O)[C@H](CCCNC(=N)N)NC(=O)[C@H](CC(C)C)NC(=O)[C@H](CO)NC(=O)[C@@H](NC(=O)CNC(=O)[C@H](CCCNC(=N)N)NC(=O)[C@H](Cc3c[nH]c4ccccc34)NC(=O)[C@H](Cc3ccccc3)NC(=O)[C@@H]3CCCN3C(=O)[C@@H](NC(=O)[C@@H](N)CCSC)[C@@H](C)O)C(C)C)[C@@H](C)CC)C(=O)N[C@@H](CCCNC(=N)N)C(=O)N[C@@H](CC(=O)O)C(=O)N[C@@H](CC(N)=O)C(=O)N[C@@H](CO)C(=O)N[C@@H](CCC(=O)O)C(=O)N2)NC(=O)[C@H](CC(C)C)NC(=O)[C@H](CCSC)NC(=O)[C@H]([C@@H](C)O)NC1=O` [disulfide LEAP-2] (H-MTPFWRGVSLRPIGASCRDNSECITMLCRKNRCFLRSASE-OH; disulfide 17-28, 23-33; N-terminus and C-terminus assumed), the “time in which all L. monocytogenes were killed” value in test [1] is at most 30 min. Moreover, in test [2], the “killing of S. aureus over time” value is given as “killed S. aureus gradually over time”. Further, the “live/dead staining of L. monocytogenes (red fluorescence = dead)” value in test [3] was “most of the cells were dead”. Further, the E. coli killed result in [4] is on record as “more than 90%”. The “killing of L. monocytogenes” value in test [5] is on record as “killed most”. Further, the “killing effect / inhibition of cell proliferation, S. Typhimurium” value in test [6] was 90%. Besides, the “killing of S. aureus” value in test [7] is given as “killed most”. Also, in test [8], the “live/dead staining of E. coli (red fluorescence = dead)” value was “most of the cells were dead”. In addition, in test [9], the “live/dead staining of S. aureus (red fluorescence = dead)” value was “most of the cells were dead”.

With `CC[C@H](C)[C@H](NC(=O)[C@H](CS)NC(=O)[C@H](CCC(=O)O)NC(=O)[C@H](CO)NC(=O)[C@H](CC(N)=O)NC(=O)[C@H](CC(=O)O)NC(=O)[C@H](CCCNC(=N)N)NC(=O)[C@H](CS)NC(=O)[C@H](CO)NC(=O)[C@H](C)NC(=O)CNC(=O)[C@@H](NC(=O)[C@@H]1CCCN1C(=O)[C@H](CCCNC(=N)N)NC(=O)[C@H](CC(C)C)NC(=O)[C@H](CO)NC(=O)[C@@H](NC(=O)CNC(=O)[C@H](CCCNC(=N)N)NC(=O)[C@H](Cc1c[nH]c2ccccc12)NC(=O)[C@H](Cc1ccccc1)NC(=O)[C@@H]1CCCN1C(=O)[C@@H](NC(=O)[C@@H](N)CCSC)[C@@H](C)O)C(C)C)[C@@H](C)CC)C(=O)N[C@H](C(=O)N[C@@H](CCSC)C(=O)N[C@@H](CC(C)C)C(=O)N[C@@H](CS)C(=O)N[C@@H](CCCNC(=N)N)C(=O)N[C@@H](CCCCN)C(=O)N[C@@H](CC(N)=O)C(=O)N[C@@H](CCCNC(=N)N)C(=O)N[C@@H](CS)C(=O)N[C@@H](Cc1ccccc1)C(=O)N[C@@H](CC(C)C)C(=O)N[C@@H](CCCNC(=N)N)C(=O)N[C@@H](CO)C(=O)N[C@@H](C)C(=O)N[C@@H](CO)C(=O)N[C@@H](CCC(=O)O)C(=O)O)[C@@H](C)O` [linear LEAP-2] (H-MTPFWRGVSLRPIGASCRDNSECITMLCRKNRCFLRSASE-OH; N-terminus and C-terminus assumed), the “time in which all L. monocytogenes were killed” value in test [1] is on record as at most 30 min. Further, in test [2], the “killing of S. aureus over time” value is “killed S. aureus gradually over time”. Moreover, in test [10], the “S. Enteritidis inhibited” value is on record as “not inhibited”.

For the origin of these results see paper PMC6601062, “Identification of duck liver-expressed antimicrobial peptide 2 and characterization of its bactericidal activity” (Asian-Australasian Journal of Animal Sciences, 2018).
